Test results reported in PMC8472786, “Inhibitory Effects of Artificial Sweeteners on Bacterial Quorum Sensing” (International Journal of Molecular Sciences, 2021).
Where a SMILES comes first, the peptide text is derived from it.

Molecular target: T1, LasR (Pseudomonas aeruginosa, UniProt P25084)
T1 construct: full-length LasR
Assay: microscale thermophoresis with fluorescently labeled purified LasR
Format: binding

T1 sequence (P25084 whole entry): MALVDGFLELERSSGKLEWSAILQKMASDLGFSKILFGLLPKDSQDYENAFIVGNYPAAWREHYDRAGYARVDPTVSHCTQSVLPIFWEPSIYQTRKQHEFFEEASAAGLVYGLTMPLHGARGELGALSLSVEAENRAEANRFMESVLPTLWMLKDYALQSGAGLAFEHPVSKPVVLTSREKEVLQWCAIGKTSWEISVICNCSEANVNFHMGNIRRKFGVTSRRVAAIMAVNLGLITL

| Structure (SMILES) | Kd [µM] |
| --- | --- |
| COC(=O)[C@H](Cc1ccccc1)NC(=O)[C@@H](N)CC(=O)O [aspartame] (H-Asp-Phe-OMe) | 11.8 |
| O=C1NS(=O)(=O)c2ccccc21 [saccharin] | 12.9 |
| OC[C@H]1O[C@H](O[C@]2(CCl)O[C@H](CCl)[C@@H](O)[C@@H]2O)[C@H](O)[C@@H](O)[C@H]1Cl [sucralose] | 12.8 |
